The test has as its target rgH1N1 NA (Influenza A virus, UniProt Q6DPL2). In kind it is biochemical, reverse-genetic influenza A virus rgH1N1.

Each structure is given as a SMILES string.

Chain of rgH1N1 NA (Q6DPL2 whole entry, looked up): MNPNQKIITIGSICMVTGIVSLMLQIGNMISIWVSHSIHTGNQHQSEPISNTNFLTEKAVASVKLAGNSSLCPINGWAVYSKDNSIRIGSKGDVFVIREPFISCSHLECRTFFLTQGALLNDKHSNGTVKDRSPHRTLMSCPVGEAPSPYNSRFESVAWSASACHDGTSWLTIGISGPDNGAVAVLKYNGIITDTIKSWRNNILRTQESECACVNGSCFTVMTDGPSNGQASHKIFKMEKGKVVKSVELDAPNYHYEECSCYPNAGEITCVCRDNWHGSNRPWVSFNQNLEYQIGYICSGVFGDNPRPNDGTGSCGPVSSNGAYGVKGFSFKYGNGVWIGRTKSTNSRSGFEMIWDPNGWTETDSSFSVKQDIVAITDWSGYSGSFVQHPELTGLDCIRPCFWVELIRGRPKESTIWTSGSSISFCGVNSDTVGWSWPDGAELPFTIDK

Turning to `CC(=O)N[C@@H]1[C@@H](O)C[C@](Oc2ccc3c(C)cc(=O)oc3c2)(C(=O)O)O[C@H]1C(O)[C@H](O)CO` (stereo partly drawn) [MUNANA, 2′-(4-methylumbelliferyl)-α-D-N-acetylneuraminic acid], the Km amounted to 18 ± 2 µM.
